Results taken from paper PMC6222614, “Disubstituted 4-Chloro-3-nitrophenylthiourea Derivatives: Antimicrobial and Cytotoxic Studies” (Molecules : A Journal of Synthetic Chemistry and Natural …, 2018).
Read-outs that look alike come from different tables or passages of the source.

What was measured:
MT-4 cells = test: Cytotoxicity against mock-infected MT-4 cells (MTT); format: cell-based, human; details: concentration reducing viability of mock-infected MT-4 cells by 50%, 96 h
Summary of the method: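 Uninfected MT-4 cells (HTLV-1-transformed human CD4+ T cells) seeded at 1 × 10^5 cells/mL in RPMI-1640 with 10% FBS and grown with serially diluted compounds at 37 °C, 5% CO2. Viability read by MTT after 96 h.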

CRL7065 = test: Antiproliferative assay (MTT), normal cell line; format: cell-based, human; details: normal foreskin fibroblasts, concentration reducing cell proliferation by 50%, 96 h
Method: (§1) Cell lines derived from human solid tumors were: Skin melanoma (SK-MEL-28); prostate carcinoma (DU-145). Normal tissues foreskin fibroblasts (CRL-7065) were also used. Cells were seeded at 1 × 10^5 cells/mL in 96 well plates in specific media supplemented with 10% FCS and antibiotics, as above. Cell cultures were then incubated at 37 °C in a humidified, 5% CO2 atmosphere in the absence or presence of serial dilutions of test compounds. Cell viability was determined after 96 h at 37 °C by the MTT method.

WIL-2NS = test: Antiproliferative assay (MTT); format: cell-based, human; details: concentration reducing cell proliferation by 50%, 96 h, mean of three determinations
Method: (§2) Cell lines derived from human hematological tumors were: CD4+ human T-cells containing an integrated HTLV-1 genome (MT-4); CD4+ human acute T-lymphoblastic leukemia (CCRF-CEM); human splenic B-lymphoblastoid cells (WIL-2NS); human acute B-lymphoblastic leukemia (CCRF-SB). Cells were seeded at an initial density of 1 × 10^5 cells/mL in 96 well plates in RPMI-1640 medium supplemented with 10% fetal calf serum (FCS), 100 units/mL penicillin G and 100 μg/mL streptomycin.
as §1

CCRF-CEM = test: Antiproliferative assay (MTT); format: cell-based, human; details: concentration reducing cell proliferation by 50%, 96 h, mean of three determinations
Method: as §2, §1

CCRF-SB = test: Antiproliferative assay (MTT); format: cell-based, human; details: concentration reducing cell proliferation by 50%, 96 h, mean of three determinations
Method: as §2, §1

MT-4 = test: Antiproliferative assay (MTT); format: cell-based, human; details: concentration reducing cell proliferation by 50%, 96 h, mean of three determinations
Method: as §2, §1

HIV-1 IIIB = test: Anti-HIV-1 activity: protection of MT-4 cells from virus-induced cytopathogenicity (MTT); format: cell-based, Human Immunodeficiency Virus type-1; details: 50% protection of MT-4 cells from HIV-1 induced cytopathogenicity, MTT, 4-day incubation; read-out: HIV-1IIIB EC50
Summary of the method: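 MT-4 cells (1 × 10^4/well) infected with HIV-1 IIIB at m.o.i. 0.01 (100 CCID50) in presence of serial compound dilutions. Protection from virus-induced cytopathogenicity measured by MTT viability after 4 days at 37 °C.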

DU145 = test: Antiproliferative assay (MTT); format: cell-based, human; details: prostate carcinoma, concentration reducing cell proliferation by 50%, 96 h
Method: as §1

SK-MEL-28 = test: Antiproliferative assay (MTT); format: cell-based, human; details: skin melanoma, concentration reducing cell proliferation by 50%, 96 h
Method: as §1

HaCaT cells [1] = test: Proliferation rate in cultures of HaCaT cells (trypan blue counting); format: cell-based, human; details: lowest concentrations (8 µM for 11 and 13, 37 µM for 25), 48 h
Method: (§3) Human immortal keratinocyte cell line from adult human skin (HaCaT) was purchased from American Type Culture Collection (Rockville, MD, USA), and cultured in Dulbecco’s Modified Eagle’s Medium (DMEM), supplemented with antibiotics (penicillin and streptomycin), 10% heat-inactivated FBS-fetal bovine serum (Gibco Life Technologies, Carlsbad, CA, USA) at 37 °C and 5% CO2 atmosphere. Cells were passaged using trypsin-EDTA (Gibco Life Technologies, Carlsbad, CA, USA) and cultured in 24-well plates (2.5 × 10^4 cells per well). Experiments were conducted in DMEM with 2% FBS.
After 48 h incubation with the lowest concentration of the tested compound the increased number of viable cells were assessed by direct counting of cells using trypan blue with a Countess Automated Cell Counter (Invitrogen, Carlsbad, CA, USA). The results are presented as a % of viable and dead cells versus control.

HaCaT cells [2] = test: Cell viability in HaCaT cells (MTT mitochondrial reduction); format: cell-based, human
Method: as §3
The cell viability assay was assessed by the determination of MTT salt (3-(4,5-dimethylthiazol-2-yl)-2,5-diphenyltetrazolium bromide, Sigma-Aldrich Chemie, Buchs, Germany) conversion by mitochondrial dehydrogenase. […] Absorbance of solubilized formazan was measured spectrophotometrically at 570 nm (using Epoch microplate reader, BioTek Inc., Winooski, VT, USA, equipped with Gen5 software (BioTech Instruments, Inc., Biokom, Janki, Polska).
Cell viability was presented as a percent of MTT in the treated cells versus the control (cells incubated in serum-free DMEM without extracts). The relative MTT level (%) was calculated as [A]/[B] × 100, where [A] is the absorbance of the test sample and [B] is the absorbance of the control sample containing the untreated cells. […]

HaCaT cells [3] = test: Lactate dehydrogenase (LDH) release assay in HaCaT cells; format: cell-based; details: 24 h
Method: Cells were passaged using trypsin-EDTA (Gibco Life Technologies, Carlsbad, CA, USA) and cultured in 24-well plates (2.5 × 10^4 cells per well). Experiments were conducted in DMEM with 2% FBS.
Release of lactate dehydrogenase (LDH) from the cytosol to culture medium is a marker of cell death. The assay was performed after 24 h incubation of HaCaT cells in 24-well plates with investigated concentrations of each compound. The activity of LDH released from the cytosol of damaged cells to the supernatant was measured using the protocol of the cytotoxicity detection kit LDH test described by the manufacturer (Roche Diagnostics, Berlin, Germany). Absorbance was measured at 490 nm using a microplate reader (using Epoch microplate reader, BioTek Inc., Winooski, VT, USA) equipped with Gen5 software (BioTech Instruments, Inc., Biokom, Janki, Polska)
Compounds mediated cytotoxicity expressed as the LDH release (%) was determined by the following equation: [(A test sample—A low control)/(A high control—A low control)] × 100% (A-absorbance); where “low control” were cells in DMEM with 2% FBS without tested compounds, and “high control” were cells incubated in DMEM with 2% FBS with 10% Triton X-100 (100% LDH release).

Row | SMILES | CC50 (MT-4 cells) | CC50 (CRL7065) | CC50 (WIL-2NS) | CC50 (CCRF-CEM) | CC50 (CCRF-SB) | CC50 (MT-4) | EC50 (HIV-1 IIIB) | CC50 (DU145) | CC50 (SK-MEL-28) | inhibition of viable cell proliferation (HaCaT cells [1]) | cytotoxicity (MTT) (HaCaT cells [2]) | cell mortality (LDH release) increased to (HaCaT cells [3]) | release of LDH (HaCaT cells [3]; concentrations 8 and 16 µM) | cytotoxicity (MTT) (HaCaT cells [2]; HaCaT, 24 h, moderate according to ISO 10993-5) | cytotoxicity as compared to the LD10 value (HaCaT cells [3]; all applied concentrations (37 µM and higher)) | LD10 (concentration at which 10% of cells were dead) (HaCaT cells [3]; LDH assay)
1 | Cc1ccc(NC(=S)Nc2ccc(Cl)c([N+](=O)[O-])c2)cc1Cl [Compound 13] | 8 µM | 16 µM | 7.6 µM | 4 µM | 6.7 µM | 8 µM | > 8 µM | 7 µM | 6 µM | 30–40% | 50% | 30% | ~10% | – | – | –
2 | O=[N+]([O-])c1cc(NC(=S)NCc2ccccc2)ccc1Cl [Compound 25] | 36.7 µM | – | – | – | – | – | > 36.7 µM | – | – | 30–40% | – | – | – | 50% | 7 fold | –
3 | O=[N+]([O-])c1cc(NC(=S)Nc2ccc(Cl)c(Cl)c2)ccc1Cl [Compound 11] | 7.9 µM | 16 µM | 9.9 µM | 8 µM | 8.6 µM | 7.9 µM | > 7.9 µM | 6 µM | 8.5 µM | ~65% | – | 20% | – | – | – | 8 µM
